Results as given in ChEMBL document CHEMBL1201862, “PubChem BioAssay data set” (2004).
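1) Cells in 96-well plates. 2) Compound, 48 h, 5 concentrations. 3) Linear interpolation between surrounding doses. 4) Unreached endpoint = highest concentration. GI50 is the concentration that inhibits growth by half.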 The source made the active and inactive calls. Cut-off read from the data, not from the text of the source: active = GI50 up to about 1.1 µM and inactive = higher. Non-standard residues stand in square brackets, D forms with d. Residues, ends and D or L forms follow the SMILES beside them. *: point of attachment. NMeF = CN[CH](Cc1ccccc1)C(=O)O; NMeV = CN[CH](C(=O)O)C(C)C; Boc = CC(C)(C)OC(=O)*

Tests used:
Experiment in all cases: NCI-60 cell line screen, 48 h
[1] = tested on: A498
[2] = tested on: MOLT-4
[3] = tested on: HT-29
[4] = tested on: EKVX
[5] = tested on: K562
[6] = tested on: SNB-75
[7] = tested on: A549
[8] = tested on: NCI-H522
[9] = tested on: KM12
[10] = tested on: UACC-62
[11] = tested on: UO-31
[12] = tested on: M14
[13] = tested on: OVCAR-4
[14] = tested on: RPMI-8226
[15] = tested on: UACC-257
[16] = tested on: RXF 393

Measured: GI50

O=C(CC(=O)N1N=C(c2ccccc2)C(/N=N/c2ccc(Cl)cc2)C1=O)Nc1ccccc1Cl (configuration not stated)
inactive: [1] > 10 µM | [2] 33 µM | [3] 37.4 µM | [4] 27.6 µM | [5] 36.7 µM | [6] 16.4 µM | [7] 13.2 µM | [8] 30.3 µM | [9] 33.8 µM | [10] 21.6 µM | [11] 22 µM | [12] 28.1 µM | [13] 16 µM | [14] 27.6 µM

COC(=O)C1CCc2c(OC)ccc(OC)c2C1=O (configuration not stated)
inactive: [1] > 100 µM | [2] > 100 µM | [3] > 100 µM | [15] > 100 µM | [4] > 100 µM | [5] > 100 µM | [7] > 100 µM | [8] > 100 µM | [9] > 100 µM | [10] > 100 µM | [11] > 100 µM | [12] > 100 µM | [13] > 100 µM | [14] > 100 µM

O=C(O)C(CS)NCc1c2ccccc2nc2ccccc12 (configuration not stated)
inactive: [2] 15.3 µM | [3] 35.6 µM | [15] 57.8 µM | [4] 38.5 µM | [5] 26.1 µM | [6] 65.8 µM | [7] 91.6 µM | [8] 25 µM | [9] 26.9 µM | [11] 18.5 µM | [13] 12.9 µM | [14] 22 µM | [16] 24.2 µM

COc1ccc2ccccc2c1C1=NC(C)(C)CO1
inactive: [2] > 100 µM | [3] > 100 µM | [15] > 100 µM | [4] > 100 µM | [5] > 100 µM | [6] > 100 µM | [7] > 100 µM | [8] > 100 µM | [9] > 100 µM | [10] > 100 µM | [11] > 100 µM | [12] > 100 µM | [13] > 100 µM | [14] > 100 µM | [16] > 100 µM

CC(C)C(NC(=O)OC(C)(C)C)C(=O)N(C)C(Cc1ccccc1)C(=O)N(C)C(C(=O)N(C)C(C(=O)O)C(C)C)C(C)C (configuration not stated) (Boc-V[NMeF][NMeV][NMeV]-OH; configuration not given here)
inactive: [2] > 100 µM | [3] > 100 µM | [15] > 100 µM | [4] > 100 µM | [5] > 100 µM | [7] > 100 µM | [8] > 100 µM | [9] > 100 µM | [10] > 100 µM | [11] > 100 µM | [12] > 100 µM | [14] > 100 µM | [16] > 100 µM

Cc1ccc(-c2nc3ccccc3c(=O)n2NC2OC(CO)C(O)C(O)C2O)cc1 (configuration not stated)
inactive: [1] > 100 µM | [2] > 100 µM | [3] > 100 µM | [15] > 100 µM | [4] > 100 µM | [5] > 100 µM | [6] > 100 µM | [7] > 100 µM | [8] > 100 µM | [9] > 100 µM | [10] > 100 µM | [11] > 100 µM | [12] > 100 µM | [13] > 100 µM | [14] > 100 µM

COc1ccccc1NC(=O)C1=C(C)NC(C)=C(C(=O)Nc2ccccc2OC)C1c1ccccc1OC
inactive: [1] > 100 µM | [2] 54.5 µM | [3] > 100 µM | [15] > 100 µM | [4] > 100 µM | [5] 60.5 µM | [6] 19.3 µM | [7] > 100 µM | [8] > 100 µM | [9] > 100 µM | [10] > 100 µM | [11] > 100 µM | [12] > 100 µM | [13] 69 µM | [14] 75.9 µM

CCOC(=O)c1ccc(N2C(=O)Cc3ccccc3C2=O)cc1
inactive: [2] > 100 µM | [3] > 100 µM | [15] > 100 µM | [4] > 100 µM | [5] > 100 µM | [6] > 100 µM | [7] > 100 µM | [9] > 100 µM | [10] > 100 µM | [11] > 100 µM | [14] > 100 µM | [16] > 100 µM

CC1=NN(C(=O)c2ccc(Cl)cc2)C(=O)/C1=C/c1ccccc1O
inactive: [1] > 100 µM | [2] > 100 µM | [3] > 100 µM | [15] > 100 µM | [4] > 100 µM | [5] > 100 µM | [7] > 100 µM | [8] > 100 µM | [9] > 100 µM | [10] > 100 µM | [11] > 100 µM | [12] > 100 µM | [13] > 100 µM | [14] > 100 µM | [16] > 100 µM

O=C1C2=C(CCC2)Nc2cccc3ncn1c23
inactive: [2] > 100 µM | [15] 64.7 µM | [4] > 100 µM | [5] > 100 µM | [7] 33.7 µM | [8] 69.7 µM | [9] 28.8 µM | [10] 40.1 µM | [11] > 100 µM | [14] > 100 µM | [16] 96.4 µM

[N-]=[N+]=Nc1cc(=O)oc2ccccc12
inactive: [2] > 100 µM | [3] > 100 µM | [15] > 100 µM | [5] > 100 µM | [6] > 100 µM | [7] > 100 µM | [8] > 100 µM | [9] > 100 µM | [10] > 100 µM | [11] > 100 µM | [12] > 100 µM | [13] > 100 µM | [14] > 100 µM | [16] > 100 µM

NC(CCC(=O)NC(CSSCCCCS(=O)O)C(=O)NCC(=O)O)C(=O)O (configuration not stated)
inactive: [1] > 100 µM | [2] 29.5 µM | [3] > 100 µM | [15] > 100 µM | [4] > 100 µM | [5] > 100 µM | [6] 23.4 µM | [7] > 100 µM | [8] > 100 µM | [9] > 100 µM | [10] > 100 µM | [11] > 100 µM | [12] > 100 µM | [13] > 100 µM | [16] > 100 µM

[N-]=[N+]=Nc1c(Br)c(=O)[nH]c(=O)n1COCCO
inactive: [2] > 100 µM | [3] > 100 µM | [15] > 100 µM | [5] > 100 µM | [6] 86.1 µM | [7] > 100 µM | [8] 32.2 µM | [9] > 100 µM | [10] > 100 µM | [11] > 100 µM | [12] > 100 µM | [13] > 100 µM | [16] > 100 µM

COc1ccc(C2C(Cl)C(=O)N2NC(=O)c2ccccc2O)cc1OC (configuration not stated)
inactive: [1] > 100 µM | [2] 42.5 µM | [3] 65.8 µM | [15] 93.8 µM | [5] 50.2 µM | [7] > 100 µM | [8] 32.2 µM | [9] 92.3 µM | [10] > 100 µM | [11] 53.2 µM | [12] > 100 µM | [13] 75.9 µM | [16] > 100 µM
